From patent US10781214B2, “Kinase inhibitor against wild-type and mutant EGFR” (PRECEDO PHARMACEUTICALS CO., LTD, priority 2015, dated 2020)
Like-named read-outs stand apart in the source and are kept apart here.

How the values were obtained:
mouse pro-B cell BaF3 = experiment: Cell growth, Cell Titer-Glo, 72 h: BaF3; type: cell-based
Source text: (§1) Compounds of the present invention were further evaluated for their selectivity in inhibiting proliferation of cancer cells by testing effects of the novel kinase inhibitors on proliferation of cancer cells. In the examples the following cells were selected: human non-small cell lung cancer cell NCI-H1975 (expressing EGFR L858R/T790M double-mutant gene), human-derived non-small cell lung cancer cell PC-9 (expressing EGFR delE746_A750 mutant gene), human-derived non-small cell lung cancer cell HCC827 (expressing EGFR delE746_A750 mutant gene), human lung adenocarcinoma cell HCC4006 (expressing EGFR delE746_A750 mutant gene), human non-small cell lung cancer cell NCI-H3255 (expressing EGFR L858R mutant gene), human skin squamous carcinoma cell A431 (expressing wild-type EGFR gene), human non-small cell lung cancer cell A549 (expressing wild-type EGFR gene), human non-small cell lung cancer cell NCI-H460 (expressing wild-type EGFR gene), human non-small cell lung cancer cell NCI-H2122 (expressing wild-type EGFR gene), Chinese hamster ovary (CHO) cell (Cricetulus griseus, hamster, Chinese, ovary), Chinese hamster lung cell (CHL), mouse pro-B cell BaF3. The cells above were all purchased from (USA).
(§2) The cells were incubated for 72 h, and then the number of viable cells was determined via quantitative determination with a microplate reader by using Cell Titer-Glo® (Promega, the USA) Luminescent Cell Viability Assay kit.

[1] = tested on: NCI-H3255 (expressing EGFR L858R mutant gene); experiment: Cancer cell growth, Cell Titer-Glo, 72 h: NCI-H3255; type: cell-based; settings: Homo sapiens
Source text: as §1, §2

[2] = tested on: BaF3-TEL-EGFR (stably expressing wild-type EGFR kinase); experiment: Cell growth, Cell Titer-Glo, 72 h: BaF3-TEL-EGFR; type: cell-based; settings: Mus musculus
Source text: (§3) In addition, this example further uses: mouse BaF3-TEL-EGFR (stably expressing wild-type EGFR kinase), mouse BaF3-TEL-EGFR-L858R (stably expressing EGFR L858R mutant kinase), mouse BaF3-TEL-EGFR-T790M (stably expressing EGFR T790M mutant kinase), mouse BaF3-FL-EGFR-DeI19 (stably expressing EGFR delE746_A750 mutant kinase), mouse BaF3-FL-EGFR-T790M-L858R (stably expressing EGFR T790M/L858R mutant kinase), mouse BaF3/P210 (stably expressing bcr/abl˜(P210) mutant kinase), mouse BaF3-TEL-ABL-T315I (stably expressing ABLT315I mutant kinase), mouse BaF3-FLT3-ITD (stably expressing FLT3/ITD mutant kinase), mouse BaF3-TEL-JAK2 (stably expressing JAK2 kinase), mouse BaF3-TEL-JAK3 (stably expressing JAK3 kinase), mouse BaF3-TPR-MET (stably expressing MET kinase), mouse BaF3-TEL-BLK (stably expressing BLK kinase), mouse BaF3-TEL-ABL (stably expressing ABL kinase), mouse BaF3-TEL-BMX (stably expressing BMX kinase), mouse BaF3-TEL-ALK (stably expressing ALK kinase). The above cell lines were all constructed by our laboratory according to the following method: the kinase region sequences of human […], EGFR L858R, EGFR T790M, EGFR delE746_A750, EGFR T790M/L858R, bcr/abl˜(P210), ABL T315I, FLT3/ITD, JAK2, JAK3, MET, BLK, ABL, BMX, ALK were amplified respectively by PCR, inserted respectively into MSCV-Puro vectors harboring N-terminal fragment and/or NPM fragment and/or TPR fragment (Clontech), then the vectors were stably transfected into mouse BaF3 cells by retrovirus methods and growth factor IL-3 was removed, eventually obtaining cell lines that are transferred protein (EGFR, EGFR L858R, EGFR T790M, EGFR delE746_A750, EGFR T790M/L858R, bcr/abl˜(P210), ABL T315I, FLT3/ITD, JAK2, JAK3, MET, BLK, ABL, BMX, ALK)-dependent.
as §2

[3] = tested on: A431 (expressing wild-type EGFR gene); experiment: Cancer cell growth, Cell Titer-Glo, 72 h: A431; type: cell-based; settings: Homo sapiens
Source text: as §1, §2

[4] = tested on: PC-9 (expressing EGFR delE746_A750 mutant gene); experiment: Cancer cell growth, Cell Titer-Glo, 72 h: PC-9; type: cell-based; settings: Homo sapiens
Source text: as §1, §2

[5] = tested on: HCC827 (expressing EGFR delE746_A750 mutant gene); experiment: Cancer cell growth, Cell Titer-Glo, 72 h: HCC827; type: cell-based; settings: Homo sapiens
Source text: as §1, §2

[6] = tested on: NCI-H1975 (expressing EGFR L858R/T790M double-mutant gene); experiment: Cancer cell growth, Cell Titer-Glo, 72 h: NCI-H1975; type: cell-based; settings: Homo sapiens
Source text: as §1, §2

[7] = tested on: BaF3-TEL-EGFR-L858R (stably expressing EGFR L858R mutant kinase); experiment: Cell growth, Cell Titer-Glo, 72 h: BaF3-TEL-EGFR-L858R; type: cell-based; settings: Mus musculus
Source text: as §3, §2

[8] = tested on: BaF3-FL-EGFR-T790M-L858R (stably expressing EGFR T790M/L858R mutant kinase); experiment: Cell growth, Cell Titer-Glo, 72 h: BaF3-FL-EGFR-T790M-L858R; type: cell-based; settings: Mus musculus, BaF3-FL-EGFR-T790M-L858R cells
Source text: as §3, §2

[9] = tested on: NCI-H460 (expressing wild-type EGFR gene); experiment: Cancer cell growth, Cell Titer-Glo, 72 h: NCI-H460; type: cell-based; settings: Homo sapiens
Source text: as §1, §2

[10] = tested on: A549 (expressing wild-type EGFR gene); experiment: Cancer cell growth, Cell Titer-Glo, 72 h: A549; type: cell-based; settings: Homo sapiens
Source text: as §1, §2

[11] = tested on: EGFR and signaling proteins in A549, H1975, PC-9, H3255 and HCC827 cells; experiment: Effect on cell signaling pathways (phosphorylation of EGFR and downstream proteins); type: cell-based, human; settings: A549, H1975, PC-9, H3255, HCC827 cells; 4 hour-treatment; 0.01-3 μM
[12] = tested on: BaF3-TEL-EGFR-T790M (stably expressing EGFR T790M mutant kinase); experiment: Cell growth, Cell Titer-Glo, 72 h: BaF3-TEL-EGFR-T790M; type: cell-based; settings: Mus musculus
Source text: as §3, §2

[13] = BaF3 cells, 72 h, read-out: GI50
[14] = NCI-H3255 cells, 72 h, read-out: GI50
[15] = BaF3-TEL-EGFR cells, read-out: GI50
[16] = A-431, A431 cells, 72 h, read-out: GI50
[17] = PC-9 cells, 72 h, read-out: GI50
[18] = HCC827 cells, 72 h, read-out: GI50
[19] = NCI-H1975 cells, 72 h, read-out: GI50
[20] = BaF3-TEL-EGFR-L858R cells, read-out: GI50
[21] = NCI-H460 cells, 72 h, read-out: GI50
[22] = A549 cells, 72 h, read-out: GI50
[23] = BaF3-TEL-EGFR-T790M cells, read-out: GI50

Structure (SMILES)	GI50 (mouse pro-B cell BaF3; [13]) [nM]	GI50 [1, 14] [nM]	GI50 [2, 15] [nM]	GI50 [3, 16] [nM]	GI50 [4, 17] [nM]	GI50 [5, 18] [nM]	GI50 [6, 19] [nM]	GI50 [8] [nM]	GI50 [10, 22] [nM]	GI50 [12, 23] [nM]	other results
C=CC(=O)Nc1cc(Cn2nc(-c3ccc(F)c(Cl)c3)c3c(N)ncnc32)ccc1N(C)CCN(C)C [Compound 40]	1900	3700	1300	2600	1000	1600	1200	–	–	–	–
C=CC(=O)N1CCC[C@@H](n2nc(-c3ccc(OCc4cccc(C)n4)c(Cl)c3)c3c(N)ncnc32)C1 [Compound 29, (R)-1-(3-(4-amino-3-(3-chloro-4-((6-methylpyridin-2-yl)methoxy)phenyl)-1H-pyrazolo[3,4-d]pyrimidin-1-yl)piperidin-1-yl)prop-2-en-1-one]	> 10000	27	5400	> 10000	35	36	< 0.3	6	> 10000	< 0.3	GI50 [7, 20]: < 0.3 nM; GI50 [9, 21]: 4000 nM; phosphorylation of EGFR protein [11]: strongly inhibit; phosphorylation of proteins such as AKT308, eIF4E, P70S6K and ERK downstream of EGFR [11]: significant effect
C=CC(=O)Nc1cc(Nc2nccc(-c3cn(C)c4ccccc34)n2)c(OC)cc1N(C)CCN(C)C [AZD9291, reference compound]	–	–	–	–	–	–	–	–	–	–	GI50 [7]: 1.7 nM; GI50 (mouse pro-B cell BaF3; BaF3, 72 h): 2700 nM; GI50 ([1]; NCI-H3255, 72 h): 31 nM; GI50 ([9]; NCI-H460, 72 h): 4000 nM; GI50 [2]: 1800 nM; GI50 ([3]; A-431, 72 h): […]; GI50 ([10]; A549, 72 h): 5000 nM; GI50 ([4]; PC-9, 72 h): 3 nM; GI50 ([5]; HCC827, 72 h): 4 nM; GI50 ([6]; NCI-H1975, 72 h): […]; GI50 [12]: 22 nM
C=CC(=O)N1CCC[C@@H](n2nc(-c3ccc(OCc4cccc(F)c4)c(F)c3)c3c(N)ncnc32)C1 [Compound 13, (R)-1-(3-(4-amino-3-(3-fluoro-4-((3-fluorobenzyl)oxy)phenyl)-1H-pyrazolo[3,4-d]pyrimidin-1-yl)piperidin-1-yl)prop-2-en-1-one]	5100	15	2800	–	2	16	17	–	7000	< 0.3	–
C=CC(=O)Nc1cccc(Nc2nc(Nc3ccc(N4CCN(C(C)=O)CC4)cc3OC)ncc2C(F)(F)F)c1 [CO-1686, reference compound]	970	250	2800	1200	130	97	440	–	830	130	GI50 [7, 20]: 6.3 nM; GI50 [9, 21]: 2500 nM
C=CC(=O)N1CCC[C@@H](n2nc(-c3ccc(OCc4ccccn4)c(C(F)(F)F)c3)c3c(N)ncnc32)C1 [Compound 35, (R)-1-(3-(4-amino-3-(3-trifluoromethyl-4-(pyridin-2-ylmethoxy)phenyl)-1H-pyrazolo[3,4-d]pyrimidin-1-yl)piperidin-1-yl)prop-2-en-1-one]	> 10000	46	3600	> 10000	180	–	56	< 0.3	3100	–	–
C=CC(=O)N1CCC[C@@H](n2nc(-c3ccc(OCc4cccc(F)c4)c(OC)c3)c3c(N)ncnc32)C1 [Compound 8]	> 10000	56	–	–	25	84	350	43	2700	–	–
C=CC(=O)N1CCC[C@@H](n2nc(-c3ccc(OCc4ncc(C)c(OC)c4C)c(Cl)c3)c3c(N)ncnc32)C1 [Compound 36, (R)-1-(3-(4-amino-3-(3-chloro-4-((4-methoxy-3,5-dimethylpyridin-2-yl)methoxy)phenyl)-1H-pyrazolo[3,4-d]pyrimidin-1-yl)piperidin-1-yl)prop-2-en-1-one]	> 10000	44	3500	> 10000	24	–	< 0.3	< 0.3	3400	–	–
CN(C)C/C=C/C(=O)N1CCC[C@@H](n2nc(-c3ccc(F)c(Cl)c3)c3c(N)ncnc32)C1 [Compound 32, (R)-1-(3-(4-amino-3-(3-chloro-4-flurophenyl)-1H-pyrazolo[3,4-d]pyrimidin-1-yl)piperidin-1-yl)-4-(dimethylamino)but-2-en-1-one]	4500	330	690	3900	170	–	710	130	> 10000	–	–
C=CC(=O)N1CCC[C@@H](n2nc(-c3ccc(OCc4nccs4)c(Cl)c3)c3c(N)ncnc32)C1 [Compound 28, (R)-1-(3-(4-amino-3-(3-chloro-4-(thiazol-2-ylmethoxy)phenyl)-1H-pyrazolo[3,4-d]pyrimidin-1-yl)piperidin-1-yl)prop-2-en-1-one]	9800	< 0.3	2800	> 10000	10	–	8	2	> 10000	–	–
C=CC(=O)N1CCC[C@@H](n2nc(-c3ccc(OCc4ccccc4)c(F)c3)c3c(N)ncnc32)C1 [Compound 12, (R)-1-(3-(4-amino-3-(4-(benzyloxy)-3-fluorophenyl)-1H-pyrazolo[3,4-d]pyrimidin-1-yl)piperidin-1-yl)prop-2-en-1-one]	7400	23	2800	–	11	39	80	–	4300	< 0.3	–
C=CC(=O)N1CCC[C@@H](n2nc(-c3ccc(OCc4ccc(C)nc4)c(Cl)c3)c3c(N)ncnc32)C1 [Compound 30, (R)-1-(3-(4-amino-3-(3-chloro-4-((6-methylpyridin-3-yl)methoxy)phenyl)-1H-pyrazolo[3,4-d]pyrimidin-1-yl)piperidin-1-yl)prop-2-en-1-one]	> 10000	36	3300	> 10000	38	–	3	2	> 10000	–	–
